In experiment [1] the test system is MRC-5: human lung fibroblast cells. The experiment in a line: MTT cytotoxicity assay on MRC-5 cells. It is filed as cell-based. The settings on record: MRC5, 24 h incubation, n = 3, ± standard deviation. As to the method: (§1) Cytotoxicity was determined using the MTT colorimetric assay, and half-maximal inhibitory concentrations (IC50, μM) were obtained for all cell lines (Table ). The selectivity index (SI) was calculated as the ratio of IC50 MRC-5/IC50 cancer cell line. Doxorubicin was employed as a positive control due to its broad-spectrum clinical use, either alone or in combination, against hepatocellular, ovarian, cervical, and bladder cancers. −
(§2) In vitro biological assays were performed by using five human cell lines for cytotoxicity evaluation. HepG2 cells (ATCC HB-8065), derived from a human hepatocellular carcinoma of the liver (person), were cultured in Dulbecco’s modified Eagle medium (DMEM) supplemented with 5% fetal bovine serum (FBS), penicillin/streptomycin (100 IU/mL), and amphotericin B (5 μg/mL), in a humidified incubator with 5% CO2 at 37 °C. These cells were plated at a concentration of 2.0 × 10^4 cells/well in 96-well microplates. MRC-5 cells (ATCC CCL-171), derived from human lung fibroblasts of a […] fetus, were cultured under the same conditions and plated at 1.0 × 10^4 cells/well. T24 cells (ATCC HTB-4), established from a transitional cell carcinoma of the bladder (person), were also cultured under identical conditions and plated at a density of 1.0 × 10^4 cells/well. TOV-21G cells (ATCC CRL-11730), derived from a primary malignant ovarian adenocarcinoma (person), were maintained in DMEM with the same supplementation and environmental conditions and plated at 5.0 × 10^4 cells/well. […]
(§3) HeLa, HepG2, MRC-5, T24, and TOV-21G cells were suspended in a culture medium supplemented with 5% fetal bovine serum (FBS) and seeded into 96-well microplates. The plates were incubated under a humidified atmosphere containing 5% CO2 at 37 °C for 24 h, allowing for adherence and monolayer formation. , Eight serial dilutions of the test samples, previously solubilized in dimethyl sulfoxide (DMSO), were prepared in DMEM supplemented with 1% FBS, covering a concentration range from […], and the results were converted to […]. The volume of DMSO in each well was limited to a final concentration not exceeding 2%. Following monolayer formation, the culture medium was aspirated and replaced with 100 μL of the diluted test samples and 100 μL of DMEM containing 1% FBS. The plates were then incubated under the same atmospheric and temperature conditions.
(§4) Two hours prior to end point reading, 20 μL of MTT [3-(4,5-dimethylthiazol-2-yl)-2,5-diphenyltetrazolium bromide] solution (1.0 mg/mL in sterile phosphate-buffered saline, Sigma-Aldrich) was added to each well. The incubation period following sample addition varied according to the cell line: 24 h for MRC-5, 48 h for T24, and 72 h for HeLa, HepG2, and TOV-21G. After the appropriate incubation, absorbance was measured by using a VICTOR X3 microplate reader (PerkinElmer), and data were processed with WorkOut 2.5 software at a wavelength of 490 nm. Formazan formation, resulting from the MTT reduction by metabolically active cells, was used as an indirect measure of cell viability. The percentage of cytotoxicity was calculated using the equation % cytotoxicity = [(A – B)/A] × 100, where A is the optical density (OD4 9 0) of untreated control cells and B is the OD4 9 0 of treated cells.
(§5) Cytotoxicity was expressed as the 50% cytotoxic concentration (CC5 0), representing the concentration of sample required to reduce cell viability by 50% relative to that of the untreated control.

Experiment [2] relates to HepG2: human liver hepatocellular carcinoma cells. The experiment in a line: MTT cytotoxicity assay on HepG2 cells. Format: cell-based. As to the method:
as §1, §2, §3, §4, §5

The subject of experiment [3] is T24: human urinary bladder carcinoma cells. The experiment in a line: MTT cytotoxicity assay on T24 cells. It is filed as cell-based. The method, then: as §1, §2, §3, §4, §5
Experiment [4] has as its system TOV-21G: human ovarian adenocarcinoma cells. The experiment in a line: MTT cytotoxicity assay on TOV-21G cells. Format: cell-based. The method, then: as §1, §2, §3, §4, §5
In experiment [5] the test system is HepG2: human liver hepatocellular carcinoma cells. Also on record: method as in PMID 37944413. The conditions noted are these: hit compound, earlier study of the group; read-out: IC50 HepG2 (earlier work); cited from earlier work.
In a further experiment the test system is HepG2 cells. Also on record: method as in PMID 37944413. The settings on record: hit compound, earlier study of the group; cited from earlier work.

Each structure is given as a SMILES string. Where two headings read alike, the source gives them in different places.

Turning to `CCCc1cc(/C=C/C(=O)c2ccc(C)cc2)c(O)c(OC)c1` [compound 1], the concentration for half-maximal inhibition (IC50) is 47.2 ± 1.3 µM in experiment [1]; 4.2 ± 1.3 µM in experiment [2] (Homo sapiens, HepG2, MTT, 72 h incubation, n = 3, NA: noncytotoxic at the concentrations tested); > 161 µM in experiment [3] (Homo sapiens, T-24, MTT, 48 h incubation, n = 3, NA: noncytotoxic at the concentrations tested); 7.2 ± 1.3 µM in experiment [4] (Homo sapiens, TOV21G, MTT, 72 h incubation, n = 3, NA: noncytotoxic at the concentrations tested); 4.25 µM in experiment [5]. In addition, in experiment [2] (IC50 MRC-5/IC50 HepG2), the “SI (HepG2)” value is reported as 11.1. The “SI (T24)” value in experiment [3] (IC50 MRC-5/IC50 T24) is recorded as <0.2. In experiment [4] (IC50 MRC-5/IC50 TOV-21G), the “SI (TOV-21G)” value worked out at 6.5. For the same compound, in the experiment with HepG2 cells, the “HepG2 cell migration (earlier work)” value is listed as “inhibiting HepG2 cell migration”.

Values taken from article PMC12713470, “Design and Synthesis of Novel Chalcone Derivatives Targeting Bladder and Liver Cancer: Cytotoxicity Evaluation and Preliminary Mechanistic Studies” (ACS Omega, 2025).
